Patent publication US10954221B2, “GLP-1R agonists and uses thereof” (QILU REGOR THERAPEUTICS INC., priority 2019, dated 2021)

Molecular target: GLP1R (Homo sapiens, UniProt P43220)
Assay: GLP1R cAMP assay (HTRF), HEK293/GLP-1R/CRE/Luc, Clone 4

Chain of GLP1R (P43220 24-463): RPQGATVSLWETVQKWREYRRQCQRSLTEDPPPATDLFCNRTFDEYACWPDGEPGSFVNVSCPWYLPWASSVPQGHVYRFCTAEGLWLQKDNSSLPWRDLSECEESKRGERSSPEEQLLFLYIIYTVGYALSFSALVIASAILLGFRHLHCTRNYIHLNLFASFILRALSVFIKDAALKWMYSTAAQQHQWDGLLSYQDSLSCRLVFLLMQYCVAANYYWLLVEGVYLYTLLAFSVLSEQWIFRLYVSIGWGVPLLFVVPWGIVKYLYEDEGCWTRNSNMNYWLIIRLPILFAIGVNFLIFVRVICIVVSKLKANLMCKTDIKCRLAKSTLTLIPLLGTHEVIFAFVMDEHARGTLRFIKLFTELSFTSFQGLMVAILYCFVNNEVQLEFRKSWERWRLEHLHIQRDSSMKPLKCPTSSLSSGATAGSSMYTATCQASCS

SMILES	EC50
O=C(O)c1ccc2nc(Cc3ccc(-c4nc(OCc5ccc(Cl)cc5F)ccc4F)cc3F)n(C[C@@H]3CCO3)c2c1 [Compound 92, (S)-2-(4-(6-((4-chloro-2-fluorobenzyl)oxy)-3-fluoropyridin-2-yl)-2-fluorobenzyl)-1-(oxetan-2-ylmethyl)-1H-benzo[d]imidazole-6-carboxylic acid]	< 15 nM
O=C(O)c1ccc2nc(CN3CC=C(c4nc(OCc5ccc(Cl)cc5F)cs4)CC3)n(C[C@@H]3CCO3)c2c1 [Compound 246, (S)-2-((4-(4-((4-chloro-2-fluorobenzyl)oxy)thiazol-2-yl)-3,6-dihydropyridin-1(2H)-yl)methyl)-1-(oxetan-2-ylmethyl)-1H-benzo[d]imidazole-6-carboxylic acid]	15 to 150 nM
O=C(O)c1ccc2nc(CN3CC=C(c4coc(OCc5ccc(Cl)cc5F)n4)CC3)n(C[C@@H]3CCO3)c2c1 [Compound 248, (S)-2-((4-(2-((4-chloro-2-fluorobenzyl)oxy)oxazol-4-yl)-5,6-dihydropyridin-1(2H)-yl)methyl)-1-(oxetan-2-ylmethyl)-1H-benzo[d]imidazole-6-carboxylic acid]	> 1000 nM
O=C(O)c1ccc2nc(CN3CC=C(c4csc(OCc5ccc(C#CC6CC6)cc5F)n4)CC3)n(C[C@@H]3CCO3)c2c1 [Compound 249, (S)-2-((4-(2-((4-(cyclopropylethynyl)-2-fluorobenzyl)oxy)thiazol-4-yl)-3,6-dihydropyridin-1(2H)-yl)methyl)-1-(oxetan-2-ylmethyl)-1H-benzo[d]imidazole-6-carboxylic acid]	15 to 150 nM
O=C(O)c1ccc2nc(CN3CC=C(c4csc(OCc5ccc(Cl)cn5)n4)CC3)n(C[C@@H]3CCO3)c2c1 [Compound 250, (S)-2-((4-(2-((5-chloropyridin-2-yl)methoxy)thiazol-4-yl)-3,6-dihydropyridin-1(2H)-yl)methyl)-1-(oxetan-2-ylmethyl)-1H-benzo[d]imidazole-6-carboxylic acid]	15 to 150 nM
O=C(O)c1ccc2nc(CN3CC=C(c4csc(OCc5ccc(OC(F)(F)F)cc5)n4)CC3)n(C[C@@H]3CCO3)c2c1 [Compound 251, (S)-1-(oxetan-2-ylmethyl)-2-((4-(2-((4-(trifluoromethoxy)benzyl)oxy)thiazol-4-yl)-3,6-dihydropyridin-1(2H)-yl)methyl)-1H-benzo[d]imidazole-6-carboxylic acid]	15 to 150 nM
O=C(O)c1ccc2nc(CN3CC=C(c4csc(OCc5ccc(F)cc5F)n4)CC3)n(C[C@@H]3CCO3)c2c1 [Compound 252, (S)-2-((4-(2-((2,4-difluorobenzyl)oxy)thiazol-4-yl)-3,6-dihydropyridin-1(2H)-yl)methyl)-1-(oxetan-2-ylmethyl)-1H-benzo[d]imidazole-6-carboxylic acid]	15 to 150 nM
O=C(O)c1ccc2nc(CN3CC=C(c4csc(OCc5ccc(Br)cn5)n4)CC3)n(C[C@@H]3CCO3)c2c1 [Compound 253, (S)-2-((4-(2-((5-bromopyridin-2-yl)methoxy)thiazol-4-yl)-3,6-dihydropyridin-1(2H)-yl)methyl)-1-(oxetan-2-ylmethyl)-1H-benzo[d]imidazole-6-carboxylic acid]	15 to 150 nM
O=C(O)c1ccc2nc(CN3CC=C(c4csc(OCc5ccc(F)cc5Cl)n4)CC3)n(C[C@@H]3CCO3)c2c1 [Compound 254, (S)-2-((4-(2-((2-chloro-4-fluorobenzyl)oxy)thiazol-4-yl)-3,6-dihydropyridin-1(2H)-yl)methyl)-1-(oxetan-2-ylmethyl)-1H-benzo[d]imidazole-6-carboxylic acid]	15 to 150 nM
O=C(O)c1ccc2nc(CN3CC=C(c4csc(OCc5ccc(C(F)(F)F)nc5)n4)CC3)n(C[C@@H]3CCO3)c2c1 [Compound 255, (S)-1-(oxetan-2-ylmethyl)-2-((4-(2-((6-(trifluoromethyl)pyridin-3-yl)methoxy)thiazol-4-yl)-3,6-dihydropyridin-1(2H)-yl)methyl)-1H-benzo[d]imidazole-6-carboxylic acid]	15 to 150 nM
O=C(O)c1ccc2nc(CN3CC=C(c4csc(OCc5ccc(C(F)(F)F)cc5)n4)CC3)n(C[C@@H]3CCO3)c2c1 [Compound 256, (S)-1-(oxetan-2-ylmethyl)-2-((4-(2-((4-(trifluoromethyl)benzyl)oxy)thiazol-4-yl)-3,6-dihydropyridin-1(2H)-yl)methyl)-1H-benzo[d]imidazole-6-carboxylic acid]	15 to 150 nM
O=C(O)c1ccc2nc(Cc3ccc(-c4cccc(OCc5ccc(Cl)cc5F)n4)cc3Cl)n(C[C@@H]3CCO3)c2c1 [Compound 258, (S)-2-(2-chloro-4-(6-((4-chloro-2-fluorobenzyl)oxy)pyridin-2-yl)benzyl)-1-(oxetan-2-ylmethyl)-1H-benzo[d]imidazole-6-carboxylic acid]	< 15 nM
O=C(O)c1ccc2nc(Cc3ccc(-c4nccc(OCc5ccc(Cl)cc5F)n4)c(F)c3)n(C[C@@H]3CCO3)c2c1 [Compound 259, (S)-2-(4-(4-((4-chloro-2-fluorobenzyl)oxy)pyrimidin-2-yl)-3-fluorobenzyl)-1-(oxetan-2-ylmethyl)-1H-benzo[d]imidazole-6-carboxylic acid]	< 15 nM
O=C(O)c1ccc2nc(Cc3ccc(-c4nc(OCc5ccc(Cl)cc5F)c(F)cc4F)cc3F)n(C[C@@H]3CCO3)c2c1 [Compound 260, (S)-2-(4-(6-(4-chloro-2-fluorobenzyloxy)-3,5-difluoropyridin-2-yl)-2-fluorobenzyl)-1-(oxetan-2-ylmethyl)-1H-benzo[d]imidazole-6-carboxylic acid]	< 15 nM
O=C(O)c1ccc2nc(Cc3ccc(-c4nc(OCc5ccc(Cl)cc5F)ccc4F)c(F)c3)n(C[C@@H]3CCO3)c2c1 [Compound 261, (S)-2-(4-(6-(4-chloro-2-fluorobenzyloxy)-3-fluoropyridin-2-yl)-3-fluorobenzyl)-1-(oxetan-2-ylmethyl)-1H-benzo[d]imidazole-6-carboxylic acid]	< 15 nM
N#Cc1ccc(COc2nc(-c3ccc(Cc4nc5ccc(C(=O)O)cc5n4C[C@@H]4CCO4)c(F)c3)ccc2F)c(F)c1 [Compound 264, (S)-2-(4-(6-((4-cyano-2-fluorobenzyl)oxy)-5-fluoropyridin-2-yl)-2-fluorobenzyl)-1-(oxetan-2-ylmethyl)-1H-benzo[d]imidazole-6-carboxylic acid]	< 15 nM
O=C(O)c1ccc2nc(Cc3ccc(-c4cncc(OCc5ccc(Cl)cc5F)n4)cc3F)n(C[C@@H]3CCO3)c2c1 [Compound 265, (S)-2-(4-(6-((4-chloro-2-fluorobenzyl)oxy)pyrazin-2-yl)-2-fluorobenzyl)-1-(oxetan-2-ylmethyl)-1H-benzo[d]imidazole-6-carboxylic acid]	< 15 nM
N#Cc1ccc(COc2ccc(F)c(-c3ccc(Cc4nc5ccc(C(=O)O)cc5n4C[C@@H]4CCO4)c(F)c3)n2)c(F)c1 [Compound 268, (S)-2-(4-(6-((4-cyano-2-fluorobenzyl)oxy)-3-fluoropyridin-2-yl)-2-fluorobenzyl)-1-(oxetan-2-ylmethyl)-1H-benzo[d]imidazole-6-carboxylic acid]	< 15 nM
O=C(O)c1ccc2nc(Cc3cc(F)c(-c4cccc(OCc5ccc(Cl)cn5)n4)cc3F)n(C[C@@H]3CCO3)c2c1 [Compound 269, (S)-2-(4-(6-((5-chloropyridin-2-yl)methoxy)pyridin-2-yl)-2,5-difluorobenzyl)-1-(oxetan-2-ylmethyl)-1H-benzo[d]imidazole-6-carboxylic acid]	< 15 nM
Cc1cc(Cc2nc3ccc(C(=O)O)cc3n2C[C@@H]2CCO2)ccc1-c1cccc(OCc2ccc(Cl)cc2F)n1 [Compound 270, (S)-2-(4-(6-((4-chloro-2-fluorobenzyl)oxy)pyridin-2-yl)-3-methylbenzyl)-1-(oxetan-2-ylmethyl)-1H-benzo[d]imidazole-6-carboxylic acid]	< 15 nM
O=C(O)c1ccc2nc(Cc3cc(F)c(-c4ncc(F)c(OCc5ncc(Cl)cc5F)n4)cc3F)n(C[C@@H]3CCO3)c2n1 [Compound 273, (S)-2-(4-(4-((5-chloro-3-fluoropyridin-2-yl)methoxy)-5-fluoropyrimidin-2-yl)-2,5-difluorobenzyl)-3-(oxetan-2-ylmethyl)-3H-imidazo[4,5-b]pyridine-5-carboxylic acid]	< 15 nM
O=C(O)c1ccc2nc(Cc3ccc(-c4cccc(OCc5ccc(F)cc5F)n4)cc3F)n(C[C@@H]3CCO3)c2c1 [Compound 274, (S)-2-(4-(6-((2,4-difluorobenzyl)oxy)pyridin-2-yl)-2-fluorobenzyl)-1-(oxetan-2-ylmethyl)-1H-benzo[d]imidazole-6-carboxylic acid]	< 15 nM
N#Cc1ccc(COc2nc(-c3cc(F)c(Cc4nc5ccc(C(=O)O)cc5n4C[C@@H]4CCO4)cc3F)ncc2F)nc1 [Compound 275, (S)-2-(4-(4-((5-cyanopyridin-2-yl)methoxy)-5-fluoropyrimidin-2-yl)-2,5-difluorobenzyl)-1-(oxetan-2-ylmethyl)-1H-benzo[d]imidazole-6-carboxylic acid]	< 15 nM
N#Cc1ccc(COc2cccc(-c3ccc(Cc4nc5ccc(C(=O)O)nc5n4C[C@@H]4CCO4)c(F)c3)n2)c(F)c1 [Compound 282, (S)-2-(4-(6-((4-cyano-2-fluorobenzyl)oxy)pyridin-2-yl)-2-fluorobenzyl)-3-(oxetan-2-ylmethyl)-3H-imidazo[4,5-b]pyridine-5-carboxylic acid]	< 15 nM
O=C(O)c1ccc2nc(Cc3ccc(-c4ccc(F)c(OCc5ccc(Cl)cc5F)n4)cc3F)n(C[C@@H]3CCO3)c2n1 [Compound 283, (S)-2-(4-(6-(4-chloro-2-fluorobenzyloxy)-5-fluoropyridin-2-yl)-2-fluorobenzyl)-3-(oxetan-2-ylmethyl)-3H-imidazo[4,5-b]pyridine-5-carboxylic acid]	< 15 nM
O=C(O)c1ccc2nc(Cc3ccc(-c4cccc(OCc5ccc(F)cc5F)n4)cc3F)n(C[C@@H]3CCO3)c2n1 [Compound 286, (S)-2-(4-(6-((2,4-difluorobenzyl)oxy)pyridin-2-yl)-2-fluorobenzyl)-3-(oxetan-2-ylmethyl)-3H-imidazo[4,5-b]pyridine-5-carboxylic acid]	< 15 nM
Cc1cc(-c2cccc(OCc3ccc(Cl)cc3F)n2)ccc1Cc1nc2ccc(C(=O)O)cc2n1C[C@@H]1CCO1 [Compound 295, (S)-2-(4-(6-((4-chloro-2-fluorobenzyl)oxy)pyridin-2-yl)-2-methylbenzyl)-1-(oxetan-2-ylmethyl)-1H-benzo[d]imidazole-6-carboxylic acid]	< 15 nM
